Assay results published in patent US20100041089A1, “IMPROVED METHOD FOR DETECTING CHEMICAL […]” (priority 2006, published 2010).

Tested on: yeast genes (expressed mRNA)
Experiment: DNA chip measurement of expressed mRNA of yeast genes after culture with a toxic chemical substance
Assay type: cell-based, Saccharomyces cerevisiae S288C
Procedure: Yeast (Saccharomyces cerevisiae S288C (a SUC2mal mel gap2 CUP1)) were cultured at 25° C. on YPD medium (yeast extract 1%, polypeptone 2%, glucose 2%). One of toxic chemical substances was added to the cell at logarithmic growth phase, and the cell was further cultured for two hours. Cell was cultured without any chemical substance in the same condition, and was used as a control. Concentrations of the chemical substances were defined to inhibit the growth of the yeast but not lead to death.
After the completion of cultivation, the culture was centrifuged to collect the cells. To the cells, sodium acetate buffer (50 mM sodium acetate, 10 mM EDTA, 1% SDS) was added, and the mixture was shaken at 65° C. for five minutes, followed by returning to room temperature, and obtaining the supernatant, which procedure was repeated two times. To the supernatant, ½ amount of a solution of phenol/chloroform (1:1) was added, and the mixture was centrifuged to give a supernatant, an equal amount of chloroform was added, and the mixture was centrifuged to give a supernatant. To the supernatant, an equal amount of isopropanol containing 0.3 M sodium acetate was added, and the mixture was allowed to stand at room temperature for 30 minutes, after which the mixture was centrifuged to give sediment of the whole RNAs. Seventy % ethanol was added to the sediment, and the mixture was again centrifuged to give sediment, which was then dried and dissolved in water. mRNA was isolated from the whole RNAs as followings. In view of the fact that a poly A chain is attached to the 3′ terminus of mRNA, a polynucleotide having a poly T structure which was immobilized on the surface of latex beads was used to trap the mRNA, and then the mRNA was washed and eluted with spine column (Oligotex-dT30<Super>mRNA Purification Kit, Takara). Reverse transcription of the mRNA was conducted with a reverse transcriptase (Super Script II Reverse Transcriptase; catalogue No. 18064-014, GibcoBRL) using fluorescence-labeled nucleotides to give cDNAs that were introduced with Cy3-dUTP or Cy5-dUTP during the reverse transcription.
The labeled cDNAs were dissolved in TE buffer (10 mM Tris-HCl/1 mM EDTA, pH 8.0), and the solution was dropped on the DNA chip containing the whole genes of yeast (DNA Chip Research Inc. Japan) so that the cDNAs were hybridized on the DNA chip at 65° C. for over 12 hours. The fluoresces intensity of the DNA chip was read with a scanner, and the ratio relative to the fluorescence intensity resulting from the absence of chemical substance was estimated as the following, which is shown in Tables 1 to 9.
In the Tables, “Intensity” indicated in the rightmost column is a value of the level of expressed mRNA of each gene in control cells as divided by the average level of the expressions of the whole genes. A gene of which mRNA level is lower in control, and is higher in cases of addition of chemical substance, is especially useful in the detection of toxic substances.
Here, when a ratio of an amount of mRNA expressed in the presence of the chemical substance to an amount of mRNA expressed in the absence of the chemical substance is two or more, then it is considered significant.

`CCCCCCCCCCCCOS(=O)(=O)[O-].[Na+]` [(18), Sodium lauryl sulfate] was tested, and the “The level of expressed mRNA in the presence of chemical substance/The level of expressed mRNA in the absence of chemical substance” value (yeast gene YNL092W, cultured two hours with substance) was 1.6, the “The level of expressed mRNA in the presence of chemical substance/The level of expressed mRNA in the absence of chemical substance” value (yeast gene YNL115C, cultured two hours with substance) was 2.6 and the “The level of expressed mRNA in the presence of chemical substance/The level of expressed mRNA in the absence of chemical substance” value (yeast gene YNL156C, cultured two hours with substance) was 1.9. For the same molecule, the “The level of expressed mRNA in the presence of chemical substance/The level of expressed mRNA in the absence of chemical substance” value (yeast gene YNL190W, cultured two hours with substance) was 0.8, the “The level of expressed mRNA in the presence of chemical substance/The level of expressed mRNA in the absence of chemical substance” value (yeast gene YNL208W, cultured two hours with substance) was 1.0 and the “The level of expressed mRNA in the presence of chemical substance/The level of expressed mRNA in the absence of chemical substance” value (yeast gene YNL211C, cultured two hours with substance) was 6.8. For the same molecule, the “The level of expressed mRNA in the presence of chemical substance/The level of expressed mRNA in the absence of chemical substance” value (yeast gene YNL234W, cultured two hours with substance) was 1.0, the “The level of expressed mRNA in the presence of chemical substance/The level of expressed mRNA in the absence of chemical substance” value (yeast gene YNL281W, cultured two hours with substance) was 0.9 and the “The level of expressed mRNA in the presence of chemical substance/The level of expressed mRNA in the absence of chemical substance” value (yeast gene YNL300W, cultured two hours with substance) was 0.8. For the same molecule, the “The level of expressed mRNA in the presence of chemical substance/The level of expressed mRNA in the absence of chemical substance” value (yeast gene YNL305C, cultured two hours with substance) was 1.6, the “The level of expressed mRNA in the presence of chemical substance/The level of expressed mRNA in the absence of chemical substance” value (yeast gene YNR064C, cultured two hours with substance) was 1.9 and the “The level of expressed mRNA in the presence of chemical substance/The level of expressed mRNA in the absence of chemical substance” value (yeast gene YNR068C, cultured two hours with substance) was 1.0. For the same molecule, the “The level of expressed mRNA in the presence of chemical substance/The level of expressed mRNA in the absence of chemical substance” value (yeast gene YOL032W, cultured two hours with substance) was 1.8, the “The level of expressed mRNA in the presence of chemical substance/The level of expressed mRNA in the absence of chemical substance” value (yeast gene YOL036W, cultured two hours with substance) was 0.9 and the “The level of expressed mRNA in the presence of chemical substance/The level of expressed mRNA in the absence of chemical substance” value (yeast gene YOL047C, cultured two hours with substance) was 1.0. The “The level of expressed mRNA in the presence of chemical substance/The level of expressed mRNA in the absence of chemical substance” value (yeast gene YOL071W, cultured two hours with substance) was 2.0, the “The level of expressed mRNA in the presence of chemical substance/The level of expressed mRNA in the absence of chemical substance” value (yeast gene YOL073C, cultured two hours with the chemical substance) was 1.2 and the “The level of expressed mRNA in the presence of chemical substance/The level of expressed mRNA in the absence of chemical substance” value (yeast gene YOL082W, cultured two hours with substance) was 2.5. For the same molecule, the “The level of expressed mRNA in the presence of chemical substance/The level of expressed mRNA in the absence of chemical substance” value (yeast gene YOL083W, cultured two hours with substance) was 3.2, the “The level of expressed mRNA in the presence of chemical substance/The level of expressed mRNA in the absence of chemical substance” value (yeast gene YOL117W, cultured two hours with substance) was 1.4 and the “The level of expressed mRNA in the presence of chemical substance/The level of expressed mRNA in the absence of chemical substance” value (yeast gene YOL131W, cultured two hours with substance) was 0.9. For the same molecule, the “The level of expressed mRNA in the presence of chemical substance/The level of expressed mRNA in the absence of chemical substance” value (yeast gene YOL150C, cultured two hours with substance) was 2.2, the “The level of expressed mRNA in the presence of chemical substance/The level of expressed mRNA in the absence of chemical substance” value (yeast gene YOL162W, cultured two hours with substance) was 0.9 and the “The level of expressed mRNA in the presence of chemical substance/The level of expressed mRNA in the absence of chemical substance” value (yeast gene YOR019W, cultured two hours with substance) was 2.8. For the same molecule, the “The level of expressed mRNA in the presence of chemical substance/The level of expressed mRNA in the absence of chemical substance” value (yeast gene YOR161C, cultured two hours with the chemical substance) was 1.2, the “The level of expressed mRNA in the presence of chemical substance/The level of expressed mRNA in the absence of chemical substance” value (yeast gene YOR173W, cultured two hours with substance) was 3.8 and the “The level of expressed mRNA in the presence of chemical substance/The level of expressed mRNA in the absence of chemical substance” value (yeast gene YOR197W, cultured two hours with substance) was 1.5. For the same molecule, the “The level of expressed mRNA in the presence of chemical substance/The level of expressed mRNA in the absence of chemical substance” value (yeast gene YOR248W, cultured two hours with substance) was 0.8, the “The level of expressed mRNA in the presence of chemical substance/The level of expressed mRNA in the absence of chemical substance” value (yeast gene YOR289W, cultured two hours with substance) was 3.9 and the “The level of expressed mRNA in the presence of chemical substance/The level of expressed mRNA in the absence of chemical substance” value (yeast gene YPL052W, cultured two hours with substance) was 1.5. The “The level of expressed mRNA in the presence of chemical substance/The level of expressed mRNA in the absence of chemical substance” value (yeast gene YPL087W, cultured two hours with substance) was 2.7, the “The level of expressed mRNA in the presence of chemical substance/The level of expressed mRNA in the absence of chemical substance” value (yeast gene YPL196W, cultured two hours with substance) was 2.3 and the “The level of expressed mRNA in the presence of chemical substance/The level of expressed mRNA in the absence of chemical substance” value (yeast gene YPL206C, cultured two hours with substance) was 1.9. For the same molecule, the “The level of expressed mRNA in the presence of chemical substance/The level of expressed mRNA in the absence of chemical substance” value (yeast gene YPL222W, cultured two hours with substance) was 0.9, the “The level of expressed mRNA in the presence of chemical substance/The level of expressed mRNA in the absence of chemical substance” value (yeast gene YPL272C, cultured two hours with the chemical substance) was 1.2 and the “The level of expressed mRNA in the presence of chemical substance/The level of expressed mRNA in the absence of chemical substance” value (yeast gene YPR023C, cultured two hours with substance) was 1.1. For the same molecule, the “The level of expressed mRNA in the presence of chemical substance/The level of expressed mRNA in the absence of chemical substance” value (yeast gene YPR079W, cultured two hours with substance) was 1.5, the “The level of expressed mRNA in the presence of chemical substance/The level of expressed mRNA in the absence of chemical substance” value (yeast gene YPR127W, cultured two hours with substance) was 1.2 and the “The level of expressed mRNA in the presence of chemical substance/The level of expressed mRNA in the absence of chemical substance” value (yeast gene YPR151C, cultured two hours with substance) was 1.4.
